Reference: patent publication EP4562003B1, “NOVEL 7-SUBSTITUTED INDOLE SULFONAMIDE DERIVATIVES” (F. Hoffmann-La Roche AG, priority 2022, dated 2024)

Biological target: human GPR17 short isoform (Homo sapiens, UniProt Q13304)
Experiment: GPR17 cAMP assay (TR-FRET cAMP quantification, antagonist mode)
Type: cell-based
Details: CHO-K1 cells stably expressing human GPR17 short isoform; EC80 of agonist MDL29,951; forskolin 15µM; IBMX 0.5mM; 30 minutes at room temperature; read-out: hGPR17 cAMP IC50
How it was run: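 CHO-K1 cells stably expressing untagged human GPR17 short isoform, 10'000 cells/well in HBSS/10mM HEPES/0.1% BSA pH 7.4. Compounds added with EC80 MDL29,951 plus 0.5mM IBMX, then 15µM forskolin; 30 min at room temperature. cAMP read by TR-FRET after 90 min lysis; normalized to reference antagonist maximal activity, sigmoidal fit.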

human GPR17 short isoform, sequence (Q13304 29-367): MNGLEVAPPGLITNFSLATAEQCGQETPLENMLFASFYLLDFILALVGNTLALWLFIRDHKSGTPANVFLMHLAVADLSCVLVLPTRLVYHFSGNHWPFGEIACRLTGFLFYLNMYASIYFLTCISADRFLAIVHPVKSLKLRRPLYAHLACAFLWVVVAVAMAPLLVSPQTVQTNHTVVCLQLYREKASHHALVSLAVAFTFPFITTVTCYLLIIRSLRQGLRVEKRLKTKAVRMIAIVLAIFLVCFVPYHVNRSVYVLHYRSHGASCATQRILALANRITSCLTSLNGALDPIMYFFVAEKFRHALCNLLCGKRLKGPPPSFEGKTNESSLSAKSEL

SMILES	IC50
COc1nc(NS(=O)(=O)c2c[nH]c3c(-c4cncc(C)n4)c(Cl)ccc23)nc(OC)c1CC(F)F [Example 86, 6-chloro-N-[5-(2,2-difluoroethyl)-4,6-dimethoxy-pyrimidin-2-yl]-7-(6-methylpyrazin-2-yl)-1H-indole-3-sulfonamide]	29 nM
COc1nc(NS(=O)(=O)c2c[nH]c3c(-c4cncc(C)n4)c(Cl)ccc23)nc(OC)c1OC(F)F [Example 87, 6-chloro-N-[5-(difluoromethoxy)-4,6-dimethoxy-pyrimidin-2-yl]-7-(6-methylpyrazin-2-yl)-1H-indole-3-sulfonamide]	31 nM
COc1nc(NS(=O)(=O)c2c[nH]c3c(-c4cncc(C)n4)c(Cl)ccc23)nc(OC)c1OCC(F)F [Example 88, 6-chloro-N-[5-(2,2-difluoroethoxy)-4,6-dimethoxy-pyrimidin-2-yl]-7-(6-methylpyrazin-2-yl)-1H-indole-3-sulfonamide]	27 nM
COc1nc(NS(=O)(=O)c2c[nH]c3c(-c4cncnc4)c(Cl)ccc23)nc(OC)c1OCC(F)F [Example 89, 6-chloro-N-[5-(2,2-difluoroethoxy)-4,6-dimethoxy-pyrimidin-2-yl]-7-(5-pyrimidyl)-1H-indole-3-sulfonamide]	42 nM
COc1nc(NS(=O)(=O)c2c[nH]c3c(-c4cnc(Cl)cn4)c(Cl)ccc23)nc(OC)c1OCC(F)F [Example 90, 6-chloro-7-(5-chloropyrazin-2-yl)-N-[5-(2,2-difluoroethoxy)-4,6-dimethoxy-pyrimidin-2-yl]-1H-indole-3-sulfonamide]	261 nM
COc1nc(NS(=O)(=O)c2c[nH]c3c(-c4cnc(Cl)cn4)c(Cl)ccc23)nc(OC)c1CC(F)F [Example 91, 6-chloro-7-(5-chloropyrazin-2-yl)-N-[5-(2,2-difluoroethyl)-4,6-dimethoxy-pyrimidin-2-yl]-1H-indole-3-sulfonamide]	225 nM
COc1nc(NS(=O)(=O)c2c[nH]c3c(-c4cccc(C)n4)c(Cl)ccc23)nc(OC)c1OCC(F)F [Example 92, 6-chloro-N-[5-(2,2-difluoroethoxy)-4,6-dimethoxy-pyrimidin-2-yl]-7-(6-methyl-2-pyridyl)-1H-indole-3-sulfonamide]	28 nM
COc1nc(NS(=O)(=O)c2c[nH]c3c(-c4cccc(C)n4)c(Cl)ccc23)nc(OC)c1CC(F)F [Example 93, 6-chloro-N-[5-(2,2-difluoroethyl)-4,6-dimethoxy-pyrimidin-2-yl]-7-(6-methyl-2-pyridyl)-1H-indole-3-sulfonamide]	24 nM
COc1nc(NS(=O)(=O)c2c[nH]c3c(-c4cccc(C)n4)c(Cl)ccc23)nc(OC)c1OC(F)F [Example 94, 6-chloro-N-[5-(difluoromethoxy)-4,6-dimethoxy-pyrimidin-2-yl]-7-(6-methyl-2-pyridyl)-1H-indole-3-sulfonamide]	20 nM
COc1nc(NS(=O)(=O)c2c[nH]c3c(-c4ccnnc4)c(Cl)ccc23)nc(OC)c1OCC(F)F [Example 95, 6-chloro-N-[5-(2,2-difluoroethoxy)-4,6-dimethoxy-pyrimidin-2-yl]-7-pyridazin-4-yl-1H-indole-3-sulfonamide]	46 nM
COc1nc(NS(=O)(=O)c2c[nH]c3c(-c4cc(C)ncn4)c(Cl)ccc23)nc(OC)c1OCC(F)F [Example 96, 6-chloro-N-[5-(2,2-difluoroethoxy)-4,6-dimethoxy-pyrimidin-2-yl]-7-(6-methylpyrimidin-4-yl)-1H-indole-3-sulfonamide]	32 nM
COc1nc(NS(=O)(=O)c2c[nH]c3c(-c4nccnc4F)c(Cl)ccc23)nc(OC)c1CC(F)F [Example 97, 6-chloro-N-[5-(2,2-difluoroethyl)-4,6-dimethoxy-pyrimidin-2-yl]-7-(3-fluoropyrazin-2-yl)-1H-indole-3-sulfonamide]	34 nM
COc1nc(NS(=O)(=O)c2c[nH]c3c(-c4nccnc4F)c(Cl)ccc23)nc(OC)c1OCC(F)F [Example 98, 6-chloro-N-[5-(2,2-difluoroethoxy)-4,6-dimethoxy-pyrimidin-2-yl]-7-(3-fluoropyrazin-2-yl)-1H-indole-3-sulfonamide]	35 nM
COc1nc(NS(=O)(=O)c2c[nH]c3c(-c4nccnc4F)c(Cl)ccc23)nc(OC)c1OC(F)F [Example 99, 6-chloro-N-[5-(difluoromethoxy)-4,6-dimethoxy-pyrimidin-2-yl]-7-(3-fluoropyrazin-2-yl)-1H-indole-3-sulfonamide]	38 nM
COc1nc(NS(=O)(=O)c2c[nH]c3c(-c4ncccc4C)c(Cl)ccc23)nc(OC)c1OCC(F)F [Example 100, 6-chloro-N-[5-(2,2-difluoroethoxy)-4,6-dimethoxy-pyrimidin-2-yl]-7-(3-methyl-2-pyridyl)-1H-indole-3-sulfonamide]	40 nM
COc1nc(NS(=O)(=O)c2c[nH]c3c(-c4cn(C)nn4)c(Cl)ccc23)nc(OC)c1OCC(F)F [Example 101, 6-chloro-N-[5-(2,2-difluoroethoxy)-4,6-dimethoxy-pyrimidin-2-yl]-7-(1-methyltriazol-4-yl)-1H-indole-3-sulfonamide]	43 nM

SMILES	IC50
COc1nc(NS(=O)(=O)c2c[nH]c3c(-c4ncccc4C)c(Cl)ccc23)nc(OC)c1CC(F)F [Example 102, 6-chloro-N-[5-(2,2-difluoroethyl)-4,6-dimethoxy-pyrimidin-2-yl]-7-(3-methyl-2-pyridyl)-1H-indole-3-sulfonamide]	42 nM
COc1nc(NS(=O)(=O)c2c[nH]c3c(-c4ncccc4C)c(Cl)ccc23)nc(OC)c1OC(F)F [Example 103, 6-chloro-N-[5-(difluoromethoxy)-4,6-dimethoxy-pyrimidin-2-yl]-7-(3-methyl-2-pyridyl)-1H-indole-3-sulfonamide]	54 nM
COc1nc(NS(=O)(=O)c2c[nH]c3c(-c4ncn(C)n4)c(Cl)ccc23)nc(OC)c1OCC(F)F [Example 104, 6-chloro-N-[5-(2,2-difluoroethoxy)-4,6-dimethoxy-pyrimidin-2-yl]-7-(1-methyl-1,2,4-triazol-3-yl)-1H-indole-3-sulfonamide]	113 nM
COc1nc(NS(=O)(=O)c2c[nH]c3c(-c4ncc(F)cn4)c(Cl)ccc23)nc(OC)c1OCC(F)F [Example 105, 6-chloro-N-[5-(2,2-difluoroethoxy)-4,6-dimethoxy-pyrimidin-2-yl]-7-(5-fluoropyrimidin-2-yl)-1H-indole-3-sulfonamide]	221 nM
COc1nc(NS(=O)(=O)c2c[nH]c3c(-c4cnn(C)n4)c(Cl)ccc23)nc(OC)c1OCC(F)F [Example 106, 6-chloro-N-[5-(2,2-difluoroethoxy)-4,6-dimethoxy-pyrimidin-2-yl]-7-(2-methyltriazol-4-yl)-1H-indole-3-sulfonamide]	34 nM
COc1nc(NS(=O)(=O)c2c[nH]c3c(-c4cnn(C)n4)c(Cl)ccc23)nc(OC)c1OC(F)F [Example 107, 6-chloro-N-[5-(difluoromethoxy)-4,6-dimethoxy-pyrimidin-2-yl]-7-(2-methyltriazol-4-yl)-1H-indole-3-sulfonamide]	76 nM
COc1nc(NS(=O)(=O)c2c[nH]c3c(-c4cnn(C)n4)c(Cl)ccc23)nc(OC)c1CC(F)F [Example 108, 6-chloro-N-[5-(2,2-difluoroethyl)-4,6-dimethoxy-pyrimidin-2-yl]-7-(2-methyltriazol-4-yl)-1H-indole-3-sulfonamide]	32 nM
COc1nc(NS(=O)(=O)c2c[nH]c3c(-c4cnn(C)n4)c(Cl)ccc23)nc(OC)c1OCCF [Example 109, 6-chloro-N-[5-(2-fluoroethoxy)-4,6-dimethoxy-pyrimidin-2-yl]-7-(2-methyltriazol-4-yl)-1H-indole-3-sulfonamide]	36 nM
COc1nc(NS(=O)(=O)c2c[nH]c3c(-c4nnco4)c(Cl)ccc23)nc(OC)c1OCC(F)F [Example 110, 6-chloro-N-[5-(2,2-difluoroethoxy)-4,6-dimethoxy-pyrimidin-2-yl]-7-(1,3,4-oxadiazol-2-yl)-1H-indole-3-sulfonamide]	46 nM
COc1nc(NS(=O)(=O)c2c[nH]c3c(-c4cnn(C)c4)c(Cl)ccc23)nc(OC)c1OCC(F)F [Example 111, 6-chloro-N-[5-(2,2-difluoroethoxy)-4,6-dimethoxy-pyrimidin-2-yl]-7-(1-methylpyrazol-4-yl)-1H-indole-3-sulfonamide]	53 nM
COc1nc(NS(=O)(=O)c2c[nH]c3c(-c4cnn(C)c4)c(Cl)ccc23)nc(OC)c1OCCF [Example 112, 6-chloro-N-[5-(2-fluoroethoxy)-4,6-dimethoxy-pyrimidin-2-yl]-7-(1-methylpyrazol-4-yl)-1H-indole-3-sulfonamide]	52 nM
COc1nc(NS(=O)(=O)c2c[nH]c3c(-c4cnn(C)c4)c(Cl)ccc23)nc(OC)c1OC(F)F [Example 113, 6-chloro-N-[5-(difluoromethoxy)-4,6-dimethoxy-pyrimidin-2-yl]-7-(1-methylpyrazol-4-yl)-1H-indole-3-sulfonamide]	82 nM
COc1nc(NS(=O)(=O)c2c[nH]c3c(-c4cnn(C)c4)c(Cl)ccc23)nc(OC)c1CC(F)F [Example 114, 6-chloro-N-[5-(2,2-difluoroethyl)-4,6-dimethoxy-pyrimidin-2-yl]-7-(1-methylpyrazol-4-yl)-1H-indole-3-sulfonamide]	55 nM
COc1nc(NS(=O)(=O)c2c[nH]c3c(-c4cscn4)c(Cl)ccc23)nc(OC)c1OCC(F)F [Example 115, 6-chloro-N-[5-(2,2-difluoroethoxy)-4,6-dimethoxy-pyrimidin-2-yl]-7-thiazol-4-yl-1H-indole-3-sulfonamide]	40 nM
COc1nc(NS(=O)(=O)c2c[nH]c3c(-c4cnco4)c(Cl)ccc23)nc(OC)c1OCC(F)F [Example 116, 6-chloro-N-[5-(2,2-difluoroethoxy)-4,6-dimethoxy-pyrimidin-2-yl]-7-oxazol-5-yl-1H-indole-3-sulfonamide]	59 nM
